Assay results published in paper PMC7486443, “Generation of Phenothiazine with Potent Anti-TLK1 Activity for Prostate Cancer Therapy” (iScience, 2020).

Assays:
Assay in all cases: biochemical
Set-up in all cases: DiscoverX KINOMEscan scanMAX competition binding panel, single concentration, percent of control; remaining binding: dose or concentration left out as unconfirmed
Conditions in all cases: KINOMEscan binding, percent of control; read-out: Table S4_SCANMAX REPORT - related to Fig. 1 / Percent Control
PIP5K2C = target: T1, PIP5K2C (Homo sapiens, UniProt Q8TBX8)
T1 construct: gene PIP4K2C

[1] = target: T2, RPS6KA4(Kin.Dom.2-C-terminal) (Homo sapiens, UniProt O75676)
T2 construct: Kin.Dom.2-C-terminal

[2] = target: T3, JAK1(JH1domain-catalytic) (Homo sapiens, UniProt P23458)
T3 construct: JH1domain-catalytic

MET(Y1235D) = MET(Y1235D) (Homo sapiens, UniProt P08581, Y1235D)
Chain of MET(Y1235D) (P08581 whole entry Y1235D): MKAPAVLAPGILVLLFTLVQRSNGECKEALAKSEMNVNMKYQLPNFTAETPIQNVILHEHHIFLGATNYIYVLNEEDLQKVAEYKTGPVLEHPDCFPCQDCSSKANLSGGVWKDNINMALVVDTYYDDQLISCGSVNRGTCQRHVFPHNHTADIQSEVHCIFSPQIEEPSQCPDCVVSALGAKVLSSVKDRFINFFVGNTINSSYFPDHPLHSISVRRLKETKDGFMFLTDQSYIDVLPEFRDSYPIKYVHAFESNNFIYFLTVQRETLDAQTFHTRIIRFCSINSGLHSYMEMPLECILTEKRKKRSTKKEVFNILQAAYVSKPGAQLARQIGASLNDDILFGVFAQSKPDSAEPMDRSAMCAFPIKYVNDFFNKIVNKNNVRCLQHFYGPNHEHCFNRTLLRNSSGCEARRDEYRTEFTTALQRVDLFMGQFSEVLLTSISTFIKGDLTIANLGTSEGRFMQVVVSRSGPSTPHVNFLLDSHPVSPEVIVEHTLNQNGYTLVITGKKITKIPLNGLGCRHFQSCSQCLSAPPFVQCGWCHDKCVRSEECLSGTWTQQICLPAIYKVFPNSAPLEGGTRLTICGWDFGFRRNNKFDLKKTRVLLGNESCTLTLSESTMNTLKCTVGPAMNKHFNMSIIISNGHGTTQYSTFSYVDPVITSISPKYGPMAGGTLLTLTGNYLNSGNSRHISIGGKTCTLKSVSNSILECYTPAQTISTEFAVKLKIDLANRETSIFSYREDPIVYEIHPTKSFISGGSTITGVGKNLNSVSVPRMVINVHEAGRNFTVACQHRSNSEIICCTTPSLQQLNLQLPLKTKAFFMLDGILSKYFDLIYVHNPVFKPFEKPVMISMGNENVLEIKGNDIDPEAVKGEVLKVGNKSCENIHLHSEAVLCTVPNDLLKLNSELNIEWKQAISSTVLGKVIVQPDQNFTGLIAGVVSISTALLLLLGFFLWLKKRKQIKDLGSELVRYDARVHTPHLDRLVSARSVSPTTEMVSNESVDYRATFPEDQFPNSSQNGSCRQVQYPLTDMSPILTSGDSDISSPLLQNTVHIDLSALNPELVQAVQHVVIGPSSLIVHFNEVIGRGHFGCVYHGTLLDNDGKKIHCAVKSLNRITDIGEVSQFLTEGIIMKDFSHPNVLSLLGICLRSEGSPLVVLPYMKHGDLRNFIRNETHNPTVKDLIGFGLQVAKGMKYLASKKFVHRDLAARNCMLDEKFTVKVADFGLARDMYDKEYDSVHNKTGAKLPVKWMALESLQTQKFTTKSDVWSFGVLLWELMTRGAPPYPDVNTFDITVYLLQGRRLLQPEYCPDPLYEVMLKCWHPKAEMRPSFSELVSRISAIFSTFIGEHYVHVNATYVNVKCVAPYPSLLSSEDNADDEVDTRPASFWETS

CAMK1B = target: T4, CAMK1B (Homo sapiens, UniProt Q6P2M8)
T4 construct: gene PNCK

EGFR(L747-T751del,Sins) = EGFR(L747-T751del,Sins) (Homo sapiens, UniProt P00533, DEL747-750/T751S)
CLK3 = CLK3 (Homo sapiens, UniProt P49761)
PIK3CA(C420R) = PIK3CA(C420R) (Homo sapiens, UniProt P42336, C420R)
SBK1 = SBK1 (Homo sapiens, UniProt Q52WX2)
PAK1 = PAK1 (Homo sapiens, UniProt Q13153)
Chain of PAK1 (Q13153 whole entry): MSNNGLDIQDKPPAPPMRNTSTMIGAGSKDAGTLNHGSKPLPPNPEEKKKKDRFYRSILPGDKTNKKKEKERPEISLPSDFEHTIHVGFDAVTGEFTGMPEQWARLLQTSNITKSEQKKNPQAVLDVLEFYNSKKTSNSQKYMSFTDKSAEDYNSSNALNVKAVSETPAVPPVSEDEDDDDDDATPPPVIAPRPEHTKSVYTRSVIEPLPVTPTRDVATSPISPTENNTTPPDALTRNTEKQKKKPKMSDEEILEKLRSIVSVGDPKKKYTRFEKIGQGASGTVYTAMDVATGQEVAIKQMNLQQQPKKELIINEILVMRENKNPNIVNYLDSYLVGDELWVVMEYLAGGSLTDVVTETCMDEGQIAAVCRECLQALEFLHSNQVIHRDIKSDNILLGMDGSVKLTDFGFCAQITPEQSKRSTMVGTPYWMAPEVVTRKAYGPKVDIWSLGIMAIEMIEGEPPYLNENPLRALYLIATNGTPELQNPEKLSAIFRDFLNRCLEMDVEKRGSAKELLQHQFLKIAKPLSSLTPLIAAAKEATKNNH

ERK8 = target: T5, ERK8 (Homo sapiens, UniProt Q8TD08)
T5 construct: gene MAPK15

PRKR = target: T6, PRKR (Homo sapiens, UniProt P19525)
T6 construct: gene EIF2AK2
T6 sequence (P19525 whole entry): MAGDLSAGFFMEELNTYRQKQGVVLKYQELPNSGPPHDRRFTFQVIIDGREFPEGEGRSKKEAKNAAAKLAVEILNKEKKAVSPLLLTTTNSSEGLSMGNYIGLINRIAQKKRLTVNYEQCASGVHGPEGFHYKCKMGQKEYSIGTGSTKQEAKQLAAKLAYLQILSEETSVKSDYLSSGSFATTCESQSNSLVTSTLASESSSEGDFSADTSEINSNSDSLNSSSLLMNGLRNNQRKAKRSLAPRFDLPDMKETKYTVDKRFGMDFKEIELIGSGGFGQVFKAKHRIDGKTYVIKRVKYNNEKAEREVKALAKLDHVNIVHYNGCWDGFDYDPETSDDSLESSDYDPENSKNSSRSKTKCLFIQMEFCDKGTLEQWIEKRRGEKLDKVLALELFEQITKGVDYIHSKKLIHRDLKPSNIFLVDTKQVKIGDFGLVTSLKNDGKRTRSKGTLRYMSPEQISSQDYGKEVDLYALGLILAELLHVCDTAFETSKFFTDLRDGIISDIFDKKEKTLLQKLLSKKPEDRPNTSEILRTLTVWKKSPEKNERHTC

PCTK1 = target: T7, PCTK1 (Homo sapiens, UniProt Q00536)
T7 construct: gene CDK16
T7 sequence (Q00536 whole entry): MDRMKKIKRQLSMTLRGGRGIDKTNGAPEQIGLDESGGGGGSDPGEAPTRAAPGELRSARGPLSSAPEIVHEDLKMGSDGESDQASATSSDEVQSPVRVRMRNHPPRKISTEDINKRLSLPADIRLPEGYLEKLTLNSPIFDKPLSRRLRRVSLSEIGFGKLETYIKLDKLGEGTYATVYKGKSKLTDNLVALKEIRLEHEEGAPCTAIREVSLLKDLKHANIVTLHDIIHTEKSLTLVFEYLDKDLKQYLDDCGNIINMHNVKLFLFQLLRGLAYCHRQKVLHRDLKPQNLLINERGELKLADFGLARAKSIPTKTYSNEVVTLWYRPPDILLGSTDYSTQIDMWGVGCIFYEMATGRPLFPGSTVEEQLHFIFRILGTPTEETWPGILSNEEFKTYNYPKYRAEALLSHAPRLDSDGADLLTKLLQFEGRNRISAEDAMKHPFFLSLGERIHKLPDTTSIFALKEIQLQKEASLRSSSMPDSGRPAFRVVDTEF

KIT = KIT (Homo sapiens, UniProt P10721)
Chain of KIT (P10721 whole entry): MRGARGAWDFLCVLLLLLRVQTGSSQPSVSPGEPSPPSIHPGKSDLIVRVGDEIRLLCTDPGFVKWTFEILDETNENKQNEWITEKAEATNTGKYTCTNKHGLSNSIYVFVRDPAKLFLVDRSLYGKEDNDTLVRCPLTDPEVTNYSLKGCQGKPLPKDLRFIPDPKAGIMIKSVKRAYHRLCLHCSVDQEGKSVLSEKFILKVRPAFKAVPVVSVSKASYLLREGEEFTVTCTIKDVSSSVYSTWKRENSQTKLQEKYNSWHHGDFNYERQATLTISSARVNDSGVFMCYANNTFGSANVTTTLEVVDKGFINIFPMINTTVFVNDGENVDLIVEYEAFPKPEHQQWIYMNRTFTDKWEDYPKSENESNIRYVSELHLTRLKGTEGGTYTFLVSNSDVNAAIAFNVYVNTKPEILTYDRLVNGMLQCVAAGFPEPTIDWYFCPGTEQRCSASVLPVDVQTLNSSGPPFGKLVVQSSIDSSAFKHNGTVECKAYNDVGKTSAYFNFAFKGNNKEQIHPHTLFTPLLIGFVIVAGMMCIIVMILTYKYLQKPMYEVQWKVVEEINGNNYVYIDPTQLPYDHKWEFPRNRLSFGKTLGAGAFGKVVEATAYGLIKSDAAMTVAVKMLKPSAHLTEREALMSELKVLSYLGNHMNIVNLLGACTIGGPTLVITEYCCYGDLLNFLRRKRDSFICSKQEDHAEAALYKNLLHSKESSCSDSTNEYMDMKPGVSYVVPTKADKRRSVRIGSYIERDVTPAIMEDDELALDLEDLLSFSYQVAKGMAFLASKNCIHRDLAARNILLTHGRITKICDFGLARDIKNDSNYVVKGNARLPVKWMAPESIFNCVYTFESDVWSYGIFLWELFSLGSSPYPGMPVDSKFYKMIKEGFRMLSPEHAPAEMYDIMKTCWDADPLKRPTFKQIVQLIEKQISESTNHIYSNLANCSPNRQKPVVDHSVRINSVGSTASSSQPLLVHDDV

AMPK-alpha1 = target: T8, AMPK-alpha1 (Homo sapiens, UniProt Q13131)
T8 construct: gene PRKAA1
T8 sequence (Q13131 whole entry): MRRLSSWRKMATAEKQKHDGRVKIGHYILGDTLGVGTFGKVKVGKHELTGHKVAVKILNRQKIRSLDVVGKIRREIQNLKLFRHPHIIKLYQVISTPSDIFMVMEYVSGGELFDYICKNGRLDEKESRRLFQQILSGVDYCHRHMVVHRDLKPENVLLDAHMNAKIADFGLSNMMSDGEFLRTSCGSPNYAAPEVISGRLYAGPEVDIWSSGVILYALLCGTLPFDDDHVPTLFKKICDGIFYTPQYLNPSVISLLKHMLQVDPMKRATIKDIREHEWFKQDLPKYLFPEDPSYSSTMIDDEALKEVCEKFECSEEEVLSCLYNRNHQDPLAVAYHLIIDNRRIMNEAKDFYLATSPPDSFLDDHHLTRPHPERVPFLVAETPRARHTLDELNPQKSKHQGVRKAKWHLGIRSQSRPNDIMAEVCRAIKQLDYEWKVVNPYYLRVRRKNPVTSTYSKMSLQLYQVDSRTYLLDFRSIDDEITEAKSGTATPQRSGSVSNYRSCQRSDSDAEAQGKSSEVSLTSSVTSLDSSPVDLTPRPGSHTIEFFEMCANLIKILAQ

GSK3A = GSK3A (Homo sapiens, UniProt P49840)
AKT1 = AKT1 (Homo sapiens, UniProt P31749)
Chain of AKT1 (P31749 whole entry): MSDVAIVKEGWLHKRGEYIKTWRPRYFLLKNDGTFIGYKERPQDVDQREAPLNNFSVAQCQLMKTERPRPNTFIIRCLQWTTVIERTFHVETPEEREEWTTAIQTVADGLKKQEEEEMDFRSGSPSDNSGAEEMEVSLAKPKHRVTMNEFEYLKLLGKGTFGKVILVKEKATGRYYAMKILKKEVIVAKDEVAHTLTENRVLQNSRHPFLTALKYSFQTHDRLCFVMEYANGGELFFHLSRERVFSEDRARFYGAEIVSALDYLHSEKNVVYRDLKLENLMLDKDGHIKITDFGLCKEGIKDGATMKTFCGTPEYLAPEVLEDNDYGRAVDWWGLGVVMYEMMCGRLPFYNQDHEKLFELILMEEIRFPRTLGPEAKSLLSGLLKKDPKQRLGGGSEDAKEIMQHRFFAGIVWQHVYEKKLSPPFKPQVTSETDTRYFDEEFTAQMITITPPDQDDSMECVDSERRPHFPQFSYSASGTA

BMPR2 = BMPR2 (Homo sapiens, UniProt Q13873)

c1ccc2c(c1)Sc1ccccc1N2CCN1CCOCC1 [J54]
remaining binding (PIP5K2C): 100%
remaining binding [1]: 94%
remaining binding [2]: 100%
remaining binding (MET(Y1235D)): 80%
remaining binding (CAMK1B): 94%
remaining binding (EGFR(L747-T751del,Sins)): 92%
remaining binding (CLK3): 92%
remaining binding (PIK3CA(C420R)): 88%
remaining binding (SBK1): 93%
remaining binding (PAK1): 93%
remaining binding (ERK8): 89%
remaining binding (PRKR): 93%
remaining binding (PCTK1): 99%
remaining binding (KIT): 100%
remaining binding (AMPK-alpha1): 100%
remaining binding (GSK3A): 80%
remaining binding (AKT1): 97%
remaining binding (BMPR2): 100%
